Test [1] addresses T1, hABL1(H396P) (Homo sapiens, UniProt P00519, H396P).
T1 construct: purchased DiscoverX (KINOMEscan platform)
The experiment in a line: KINOMEscan. The format is binding.

In test [2] the target is T2, hABL2 (Homo sapiens, UniProt P42684).
T2 construct: purchased DiscoverX (KINOMEscan platform)
Kind of test: KINOMEscan. Type of test: binding.

Test [3] has as its target T3, hBMPR2 (Homo sapiens, UniProt Q13873).
T3 construct: purchased DiscoverX
The experiment in a line: KINOMEscan. Type of test: binding.

The target of test [4] is T4, hBRAF (Homo sapiens, UniProt P15056).
T4 construct: purchased DiscoverX
Kind of test: KINOMEscan. The format is binding.

The target in test [5] is T5, hCDKL2 (Homo sapiens, UniProt Q92772).
T5 construct: purchased DiscoverX
Kind of test: KINOMEscan. The format is binding.

Test [6] addresses T6, hCSNK1G3 (Homo sapiens, UniProt Q9Y6M4).
T6 construct: purchased DiscoverX (KINOMEscan platform)
The experiment in a line: KINOMEscan. The format is binding.

The target of test [7] is T7, hEGFR(L747-S752del, P753S) (Homo sapiens, UniProt P00533, DEL747-752/P753S).
T7 construct: purchased DiscoverX
Kind of test: KINOMEscan. The format is binding.

The target of test [8] is T8, hEGFR(L861Q) (Homo sapiens, UniProt P00533, L861Q).
T8 construct: purchased DiscoverX
Kind of test: KINOMEscan. Type of test: binding.

For test [9], the target named is T9, hERBB2 (Homo sapiens, UniProt P04626).
T9 construct: purchased DiscoverX
The experiment in a line: KINOMEscan. The format is binding.

Test [10] has as its target T10, hHASPIN (Homo sapiens, UniProt Q8TF76).
T10 construct: purchased DiscoverX
The experiment in a line: KINOMEscan. Type of test: binding.

Test [11] has as its target T11, hHIPK2 (Homo sapiens, UniProt Q9H2X6).
T11 construct: purchased DiscoverX
The experiment in a line: KINOMEscan. The format is binding.

Test [12] has as its target T12, hMAP3K2 (Homo sapiens, UniProt Q9Y2U5).
T12 construct: purchased DiscoverX (KINOMEscan platform)
Kind of test: KINOMEscan. The format is binding.

For test [13], the target named is T13, hMARK2 (Homo sapiens, UniProt Q7KZI7).
T13 construct: purchased DiscoverX
The experiment in a line: KINOMEscan. The format is binding.

Test [14] concerns the target T14, hMARK3 (Homo sapiens, UniProt P27448).
T14 construct: purchased DiscoverX
The experiment in a line: KINOMEscan. Type of test: binding.

The target in test [15] is T15, hRSK1(Kin.Dom.2-C-term) (Homo sapiens, UniProt Q15418).
T15 construct: hRSK1(Kin.Dom.2-C-term); purchased DiscoverX (KINOMEscan platform)
Kind of test: KINOMEscan. Type of test: binding.

Test [16] deals with T16, hRSK3(Kin.Dom.2-C-term) (Homo sapiens, UniProt Q15349).
T16 construct: hRSK3(Kin.Dom.2-C-term); purchased DiscoverX (KINOMEscan platform)
The experiment in a line: KINOMEscan. The format is binding.

The target of test [17] is T17, hSGK2 (Homo sapiens, UniProt Q9HBY8).
T17 construct: purchased DiscoverX (KINOMEscan platform)
The experiment in a line: KINOMEscan. The format is binding.

Test [18] has as its target T18, hSIK2 (Homo sapiens, UniProt Q9H0K1).
T18 construct: purchased DiscoverX (KINOMEscan platform)
The experiment in a line: KINOMEscan. The format is binding.

For test [19], the target named is T19, hTYRO3 (Homo sapiens, UniProt Q06418).
T19 construct: purchased DiscoverX
Kind of test: KINOMEscan. Type of test: binding.

Test [20] concerns the target T20, hADRα2A (Homo sapiens, UniProt P08913).
T20 sequence (P08913 1-465): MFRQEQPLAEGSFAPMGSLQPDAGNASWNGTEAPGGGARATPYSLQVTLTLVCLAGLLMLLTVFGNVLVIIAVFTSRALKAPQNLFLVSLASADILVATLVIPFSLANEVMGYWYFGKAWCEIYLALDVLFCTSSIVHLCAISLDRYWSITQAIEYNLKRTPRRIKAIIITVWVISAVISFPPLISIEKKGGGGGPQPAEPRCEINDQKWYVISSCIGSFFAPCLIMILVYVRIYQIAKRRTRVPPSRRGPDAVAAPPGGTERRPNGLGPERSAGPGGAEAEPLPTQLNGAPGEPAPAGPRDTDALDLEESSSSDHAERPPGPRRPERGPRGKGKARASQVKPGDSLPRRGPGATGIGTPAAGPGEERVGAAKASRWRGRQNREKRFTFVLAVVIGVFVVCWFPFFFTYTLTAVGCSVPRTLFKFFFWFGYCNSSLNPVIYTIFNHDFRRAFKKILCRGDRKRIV
The experiment in a line: cAMP Agonist (Eurofins-CEREP). Particulars: @ 10 μM.

Test [21] deals with T21, hM2 (Homo sapiens, UniProt P08172).
T21 sequence (P08172 1-466): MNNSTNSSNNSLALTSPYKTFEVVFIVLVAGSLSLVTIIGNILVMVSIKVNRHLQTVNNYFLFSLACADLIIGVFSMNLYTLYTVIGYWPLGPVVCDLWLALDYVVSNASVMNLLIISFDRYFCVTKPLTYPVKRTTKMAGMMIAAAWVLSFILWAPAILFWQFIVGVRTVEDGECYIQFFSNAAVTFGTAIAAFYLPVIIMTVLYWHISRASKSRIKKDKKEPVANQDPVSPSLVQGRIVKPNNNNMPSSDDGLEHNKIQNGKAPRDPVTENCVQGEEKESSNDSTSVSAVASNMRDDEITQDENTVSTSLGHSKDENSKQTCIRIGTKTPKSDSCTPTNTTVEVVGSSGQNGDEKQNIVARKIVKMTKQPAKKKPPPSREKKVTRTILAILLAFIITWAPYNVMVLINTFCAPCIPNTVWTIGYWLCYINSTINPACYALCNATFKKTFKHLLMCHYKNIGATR
Kind of test: β-arrestin Potentiation (Eurofins-CEREP). Particulars: @ 10 μM.

The target of test [22] is T22, hADRα1A (Homo sapiens, UniProt P35348).
T22 sequence (P35348 1-466): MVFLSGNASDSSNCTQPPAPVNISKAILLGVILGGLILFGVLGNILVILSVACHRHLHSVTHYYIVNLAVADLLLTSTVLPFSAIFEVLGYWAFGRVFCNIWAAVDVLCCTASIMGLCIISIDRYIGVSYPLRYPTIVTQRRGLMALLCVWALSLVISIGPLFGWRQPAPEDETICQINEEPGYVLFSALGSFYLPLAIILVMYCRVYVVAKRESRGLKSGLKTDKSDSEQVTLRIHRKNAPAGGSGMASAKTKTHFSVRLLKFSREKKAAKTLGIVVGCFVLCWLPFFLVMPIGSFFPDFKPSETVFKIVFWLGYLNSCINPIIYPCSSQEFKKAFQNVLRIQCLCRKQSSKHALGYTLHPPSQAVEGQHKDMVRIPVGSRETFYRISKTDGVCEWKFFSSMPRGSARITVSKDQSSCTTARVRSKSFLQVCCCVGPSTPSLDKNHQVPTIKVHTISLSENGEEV
Kind of test: Calcium Mobilization Antagonist (Eurofins-CEREP). The conditions noted are these: read-out: % Effect, Inhibition.

A value given as a limit tells only on which side of the number the result lay.

T17 sequence (Q9HBY8 whole entry): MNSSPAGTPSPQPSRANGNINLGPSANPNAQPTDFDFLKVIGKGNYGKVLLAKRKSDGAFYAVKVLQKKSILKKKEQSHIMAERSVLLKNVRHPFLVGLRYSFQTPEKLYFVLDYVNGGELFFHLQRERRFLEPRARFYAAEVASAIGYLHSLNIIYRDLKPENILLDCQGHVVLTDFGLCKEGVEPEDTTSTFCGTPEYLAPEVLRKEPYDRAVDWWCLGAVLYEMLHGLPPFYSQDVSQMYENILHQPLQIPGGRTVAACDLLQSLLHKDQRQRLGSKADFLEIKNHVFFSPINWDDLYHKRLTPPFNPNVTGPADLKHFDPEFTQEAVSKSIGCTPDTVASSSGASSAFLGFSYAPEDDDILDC
T6 sequence (Q9Y6M4 whole entry): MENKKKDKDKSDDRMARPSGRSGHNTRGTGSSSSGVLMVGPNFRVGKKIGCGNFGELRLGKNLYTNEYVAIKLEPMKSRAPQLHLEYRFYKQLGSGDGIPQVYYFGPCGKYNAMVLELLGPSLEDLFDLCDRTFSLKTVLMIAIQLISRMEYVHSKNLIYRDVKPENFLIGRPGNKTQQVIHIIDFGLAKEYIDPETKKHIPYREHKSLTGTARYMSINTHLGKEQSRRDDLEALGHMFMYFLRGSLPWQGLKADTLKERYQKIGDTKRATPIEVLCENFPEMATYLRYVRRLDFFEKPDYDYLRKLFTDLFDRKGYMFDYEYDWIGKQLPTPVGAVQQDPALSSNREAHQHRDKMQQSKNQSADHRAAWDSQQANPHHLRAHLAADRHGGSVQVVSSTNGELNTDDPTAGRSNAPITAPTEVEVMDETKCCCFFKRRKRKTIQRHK
T4 sequence (P15056 whole entry): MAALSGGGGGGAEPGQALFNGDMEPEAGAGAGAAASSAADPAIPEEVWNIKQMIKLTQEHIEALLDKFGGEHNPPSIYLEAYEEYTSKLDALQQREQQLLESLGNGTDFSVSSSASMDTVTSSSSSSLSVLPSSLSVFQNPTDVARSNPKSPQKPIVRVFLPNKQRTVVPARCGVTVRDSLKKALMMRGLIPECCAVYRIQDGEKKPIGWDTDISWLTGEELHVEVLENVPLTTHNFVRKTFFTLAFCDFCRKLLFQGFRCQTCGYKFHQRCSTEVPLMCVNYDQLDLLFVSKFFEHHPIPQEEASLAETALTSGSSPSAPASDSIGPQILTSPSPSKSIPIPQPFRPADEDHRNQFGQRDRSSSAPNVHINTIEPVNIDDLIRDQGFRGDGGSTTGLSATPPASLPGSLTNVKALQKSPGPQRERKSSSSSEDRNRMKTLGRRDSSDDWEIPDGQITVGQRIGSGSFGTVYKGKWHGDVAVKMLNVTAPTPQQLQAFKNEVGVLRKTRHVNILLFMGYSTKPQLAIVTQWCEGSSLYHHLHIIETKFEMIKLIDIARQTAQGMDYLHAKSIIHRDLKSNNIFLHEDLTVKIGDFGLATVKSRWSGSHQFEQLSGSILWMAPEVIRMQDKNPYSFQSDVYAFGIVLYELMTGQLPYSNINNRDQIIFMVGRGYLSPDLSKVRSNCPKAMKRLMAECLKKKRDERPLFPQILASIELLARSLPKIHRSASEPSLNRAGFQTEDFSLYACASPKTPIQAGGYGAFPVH
T3 sequence (Q13873 27-1038): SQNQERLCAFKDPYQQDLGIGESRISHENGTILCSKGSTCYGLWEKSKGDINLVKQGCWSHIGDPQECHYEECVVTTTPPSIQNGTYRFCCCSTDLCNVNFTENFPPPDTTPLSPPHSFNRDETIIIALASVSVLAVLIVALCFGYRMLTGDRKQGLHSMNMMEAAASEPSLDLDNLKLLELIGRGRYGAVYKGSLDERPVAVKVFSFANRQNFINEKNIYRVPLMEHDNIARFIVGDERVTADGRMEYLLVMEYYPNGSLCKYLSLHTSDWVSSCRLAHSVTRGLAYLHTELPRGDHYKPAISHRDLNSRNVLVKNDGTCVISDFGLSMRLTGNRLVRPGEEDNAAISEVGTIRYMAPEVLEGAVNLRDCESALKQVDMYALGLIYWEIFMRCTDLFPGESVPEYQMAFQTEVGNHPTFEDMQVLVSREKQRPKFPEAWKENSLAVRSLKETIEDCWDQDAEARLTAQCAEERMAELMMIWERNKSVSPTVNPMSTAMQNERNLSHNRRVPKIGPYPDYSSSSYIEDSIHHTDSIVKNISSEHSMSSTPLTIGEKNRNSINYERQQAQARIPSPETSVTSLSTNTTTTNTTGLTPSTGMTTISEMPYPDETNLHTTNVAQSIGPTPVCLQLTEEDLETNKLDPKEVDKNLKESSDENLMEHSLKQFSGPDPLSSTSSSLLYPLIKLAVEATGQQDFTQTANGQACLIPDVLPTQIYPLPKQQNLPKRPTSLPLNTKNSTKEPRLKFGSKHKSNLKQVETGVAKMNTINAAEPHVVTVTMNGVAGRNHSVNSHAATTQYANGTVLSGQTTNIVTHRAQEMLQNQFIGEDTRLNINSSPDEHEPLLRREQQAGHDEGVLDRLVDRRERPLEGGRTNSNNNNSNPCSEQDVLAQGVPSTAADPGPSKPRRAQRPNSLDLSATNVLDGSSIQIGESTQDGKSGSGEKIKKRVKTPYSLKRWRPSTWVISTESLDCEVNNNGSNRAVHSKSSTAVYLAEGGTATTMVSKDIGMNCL
T9 sequence (P04626 23-1255): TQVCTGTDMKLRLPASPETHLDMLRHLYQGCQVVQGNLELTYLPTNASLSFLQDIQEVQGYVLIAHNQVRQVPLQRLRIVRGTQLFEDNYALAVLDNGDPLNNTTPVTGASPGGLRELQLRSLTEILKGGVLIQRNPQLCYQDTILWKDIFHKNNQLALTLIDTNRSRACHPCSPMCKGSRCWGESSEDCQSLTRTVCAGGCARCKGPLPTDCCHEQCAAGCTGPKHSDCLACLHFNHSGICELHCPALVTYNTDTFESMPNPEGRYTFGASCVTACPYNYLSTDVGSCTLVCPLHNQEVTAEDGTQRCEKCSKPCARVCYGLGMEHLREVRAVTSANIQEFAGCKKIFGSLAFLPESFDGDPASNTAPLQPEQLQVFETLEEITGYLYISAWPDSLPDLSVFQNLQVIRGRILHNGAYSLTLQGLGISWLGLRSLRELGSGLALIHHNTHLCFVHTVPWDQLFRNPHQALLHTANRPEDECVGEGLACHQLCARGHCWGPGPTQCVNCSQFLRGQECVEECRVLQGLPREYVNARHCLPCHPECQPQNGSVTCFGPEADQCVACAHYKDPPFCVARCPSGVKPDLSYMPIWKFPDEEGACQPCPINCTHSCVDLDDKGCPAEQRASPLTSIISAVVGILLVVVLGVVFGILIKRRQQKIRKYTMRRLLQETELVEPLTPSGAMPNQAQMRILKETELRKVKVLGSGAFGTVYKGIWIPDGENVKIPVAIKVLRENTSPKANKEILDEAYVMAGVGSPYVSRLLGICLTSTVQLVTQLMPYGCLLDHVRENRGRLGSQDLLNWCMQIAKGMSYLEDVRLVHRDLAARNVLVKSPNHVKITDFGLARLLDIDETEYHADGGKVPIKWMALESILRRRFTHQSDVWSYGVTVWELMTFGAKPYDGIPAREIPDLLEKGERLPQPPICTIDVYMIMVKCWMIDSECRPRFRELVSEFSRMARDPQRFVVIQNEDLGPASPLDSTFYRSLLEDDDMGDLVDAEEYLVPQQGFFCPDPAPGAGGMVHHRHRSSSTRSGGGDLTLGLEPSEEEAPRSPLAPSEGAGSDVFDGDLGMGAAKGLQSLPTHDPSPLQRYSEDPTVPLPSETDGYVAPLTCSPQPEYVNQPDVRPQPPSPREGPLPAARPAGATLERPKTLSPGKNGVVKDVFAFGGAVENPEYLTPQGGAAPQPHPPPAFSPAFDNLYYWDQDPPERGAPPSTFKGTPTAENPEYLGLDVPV
T19 sequence (Q06418 41-890): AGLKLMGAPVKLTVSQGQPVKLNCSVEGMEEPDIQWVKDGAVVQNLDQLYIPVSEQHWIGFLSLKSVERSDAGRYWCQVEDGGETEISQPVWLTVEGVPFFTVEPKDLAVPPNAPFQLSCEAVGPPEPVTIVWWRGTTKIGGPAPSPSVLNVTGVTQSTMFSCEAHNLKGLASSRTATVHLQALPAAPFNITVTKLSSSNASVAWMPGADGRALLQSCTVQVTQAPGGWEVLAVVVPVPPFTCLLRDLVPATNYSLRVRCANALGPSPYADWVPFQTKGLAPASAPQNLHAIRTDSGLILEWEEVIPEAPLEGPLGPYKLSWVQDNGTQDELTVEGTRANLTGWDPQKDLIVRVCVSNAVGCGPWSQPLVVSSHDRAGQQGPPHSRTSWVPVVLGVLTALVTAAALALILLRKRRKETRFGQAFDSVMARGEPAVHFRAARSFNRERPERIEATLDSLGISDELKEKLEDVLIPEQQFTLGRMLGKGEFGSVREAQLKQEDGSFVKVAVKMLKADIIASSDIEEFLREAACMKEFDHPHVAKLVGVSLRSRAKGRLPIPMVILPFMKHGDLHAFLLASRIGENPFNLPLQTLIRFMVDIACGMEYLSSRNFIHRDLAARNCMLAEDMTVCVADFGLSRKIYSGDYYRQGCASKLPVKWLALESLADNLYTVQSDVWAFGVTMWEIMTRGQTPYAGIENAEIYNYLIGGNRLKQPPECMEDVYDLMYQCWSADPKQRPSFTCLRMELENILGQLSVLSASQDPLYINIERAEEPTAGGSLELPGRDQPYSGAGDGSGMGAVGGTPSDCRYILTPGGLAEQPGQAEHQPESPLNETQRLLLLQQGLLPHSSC
T16 sequence (Q15349 415-672 limits assumed): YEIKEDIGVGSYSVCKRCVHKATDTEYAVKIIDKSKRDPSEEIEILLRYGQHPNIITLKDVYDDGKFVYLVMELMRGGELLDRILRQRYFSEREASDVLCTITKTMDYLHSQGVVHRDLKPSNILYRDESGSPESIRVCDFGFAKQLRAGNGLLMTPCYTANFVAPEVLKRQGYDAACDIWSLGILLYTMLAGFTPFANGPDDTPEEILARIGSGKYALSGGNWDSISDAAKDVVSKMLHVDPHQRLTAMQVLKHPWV

The term IC50 denotes the midpoint of a concentration-inhibition curve. The low end stands for higher potency, the high end for lower potency. As a reminder, the inhibition is the percentage by which the read-out fell short of the control. Take `Cc1cn(CCN2CCN(c3ccccc3-c3cc(C#N)cc(C(=O)NCCCN4CCCC4)c3)CC2)c2ccccc12` [LLY-507, 3-cyano-5-{2-[4-[2-(3-methylindol-1-yl)ethyl]piperazin-1-yl]-phenyl}-N-[(3-pyrrolidin-1-yl)propyl]benzamide]: the IC50 in test [1], in test [2], in test [3], in [4], in test [5] and in test [6] was greater than 20 µM in each case. The IC50 in [7], in test [8], in [9], in test [10], in test [11] and in test [12] was greater than 20 µM each time. In addition, the concentration for half-maximal inhibition (IC50) in [13], in test [14], in test [15], in test [16], in test [17] and in test [18] was greater than 20 µM throughout. In test [19], the IC50 is greater than 20 µM. The “% Effect, Stimulation” value in [20] came to 0.2%. In addition, in test [21], the “% Effect, Potentiation” value was -32.2%. For the same molecule, the inhibition at 10 µM in test [22] came out at 98%.
